Experiment: Population pharmacokinetic analysis
Format: in vivo, human

CC(C)c1c(C(=O)Nc2ccccc2O)c(-c2ccccc2)c(-c2ccc(F)cc2)n1CC[C@@H](O)C[C@@H](O)CC(=O)O [o-OH-atorvastatin, ortho-hydroxy atorvastatin]
central volume of distribution of atorvastatin and o-OH-atorvastatin (Vcator=Vcmet) (base PK model): 3170 L
metabolite clearance (CLo-OH-ator) (base PK model): 118 L/h
o-OH-atorvastatin formed slower (presence vs absence of boosted ARVs, full dataset): 88%

CC(C)c1c(C(=O)Nc2ccccc2)c(-c2ccccc2)c(-c2ccc(F)cc2)n1CC[C@@H](O)C[C@@H](O)CC(=O)O [atorvastatin]
FRator-oOH (base PK model): 11%
between-subject variability on CLator (base PK model, CV%): 94%
between-subject variability on FRator-oOH (base PK model, CV%): 131%
between-subject variability on Vcator=Vcmet (base PK model, CV%): 137%
decrease in logit(FRator-oOH) (coadministration of boosted ARVs): 225%

— paper PMC7403138 (Clinical Pharmacokinetics, 2020)
